Test results as given in ChEMBL document CHEMBL5465560, “Selectivity Literature for EUbOPEN Chemogenomic Library” (2024).
Values belong to the compound of their own block, whether it stands above or below them.

How the values were obtained:
[1] = target: Tyrosine-protein kinase ABL2 (Homo sapiens, UniProt P42684); experiment: Selectivity interaction (Kinase panel (Invitrogen)) EUB0000639a ABL2; conditions: at 200 nM
[2] = target: T1, Phosphatidylinositol 4,5-bisphosphate 3-kinase catalytic subunit delta isoform (Homo sapiens) (UniProt O00329); experiment: Selectivity interaction (KinomeScan (DiscoverX)) EUB0000695a PIK3CD; conditions: at 100 nM
T1 sequence (whole entry): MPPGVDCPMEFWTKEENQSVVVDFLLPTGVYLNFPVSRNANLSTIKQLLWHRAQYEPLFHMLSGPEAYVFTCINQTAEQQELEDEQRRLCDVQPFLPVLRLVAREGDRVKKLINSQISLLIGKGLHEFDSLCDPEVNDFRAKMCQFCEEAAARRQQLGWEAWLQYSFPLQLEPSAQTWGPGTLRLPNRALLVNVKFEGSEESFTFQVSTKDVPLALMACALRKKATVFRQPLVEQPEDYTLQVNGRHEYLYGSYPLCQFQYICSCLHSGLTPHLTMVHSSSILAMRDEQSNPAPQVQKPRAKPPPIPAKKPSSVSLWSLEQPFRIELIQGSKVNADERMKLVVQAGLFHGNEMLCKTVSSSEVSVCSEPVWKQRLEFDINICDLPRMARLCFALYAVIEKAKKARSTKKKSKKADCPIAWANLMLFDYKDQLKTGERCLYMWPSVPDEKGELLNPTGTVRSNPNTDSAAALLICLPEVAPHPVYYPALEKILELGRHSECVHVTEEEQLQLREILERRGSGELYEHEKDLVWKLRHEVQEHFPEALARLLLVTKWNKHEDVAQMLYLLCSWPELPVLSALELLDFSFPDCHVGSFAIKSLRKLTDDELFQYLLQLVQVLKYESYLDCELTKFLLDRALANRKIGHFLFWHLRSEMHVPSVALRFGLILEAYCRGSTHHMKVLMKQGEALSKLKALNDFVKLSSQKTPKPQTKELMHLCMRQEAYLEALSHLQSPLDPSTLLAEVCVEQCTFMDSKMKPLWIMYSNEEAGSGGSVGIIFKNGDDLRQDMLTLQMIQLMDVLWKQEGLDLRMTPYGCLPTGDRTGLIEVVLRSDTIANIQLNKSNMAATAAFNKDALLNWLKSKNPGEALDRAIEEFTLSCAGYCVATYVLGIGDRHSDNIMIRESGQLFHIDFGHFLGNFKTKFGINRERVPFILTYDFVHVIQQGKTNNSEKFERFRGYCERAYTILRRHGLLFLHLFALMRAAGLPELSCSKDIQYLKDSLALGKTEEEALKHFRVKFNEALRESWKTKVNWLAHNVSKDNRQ

[3] = target: T2, Tyrosine-protein kinase Mer (Homo sapiens) (UniProt Q12866); experiment: Selectivity interaction (Ambit KINOMEscan and KiNATiv profiling in Jurkat cells) EUB0000090b MERTK; assay type: cell-based; conditions: at 1 µM
T2 sequence (whole entry): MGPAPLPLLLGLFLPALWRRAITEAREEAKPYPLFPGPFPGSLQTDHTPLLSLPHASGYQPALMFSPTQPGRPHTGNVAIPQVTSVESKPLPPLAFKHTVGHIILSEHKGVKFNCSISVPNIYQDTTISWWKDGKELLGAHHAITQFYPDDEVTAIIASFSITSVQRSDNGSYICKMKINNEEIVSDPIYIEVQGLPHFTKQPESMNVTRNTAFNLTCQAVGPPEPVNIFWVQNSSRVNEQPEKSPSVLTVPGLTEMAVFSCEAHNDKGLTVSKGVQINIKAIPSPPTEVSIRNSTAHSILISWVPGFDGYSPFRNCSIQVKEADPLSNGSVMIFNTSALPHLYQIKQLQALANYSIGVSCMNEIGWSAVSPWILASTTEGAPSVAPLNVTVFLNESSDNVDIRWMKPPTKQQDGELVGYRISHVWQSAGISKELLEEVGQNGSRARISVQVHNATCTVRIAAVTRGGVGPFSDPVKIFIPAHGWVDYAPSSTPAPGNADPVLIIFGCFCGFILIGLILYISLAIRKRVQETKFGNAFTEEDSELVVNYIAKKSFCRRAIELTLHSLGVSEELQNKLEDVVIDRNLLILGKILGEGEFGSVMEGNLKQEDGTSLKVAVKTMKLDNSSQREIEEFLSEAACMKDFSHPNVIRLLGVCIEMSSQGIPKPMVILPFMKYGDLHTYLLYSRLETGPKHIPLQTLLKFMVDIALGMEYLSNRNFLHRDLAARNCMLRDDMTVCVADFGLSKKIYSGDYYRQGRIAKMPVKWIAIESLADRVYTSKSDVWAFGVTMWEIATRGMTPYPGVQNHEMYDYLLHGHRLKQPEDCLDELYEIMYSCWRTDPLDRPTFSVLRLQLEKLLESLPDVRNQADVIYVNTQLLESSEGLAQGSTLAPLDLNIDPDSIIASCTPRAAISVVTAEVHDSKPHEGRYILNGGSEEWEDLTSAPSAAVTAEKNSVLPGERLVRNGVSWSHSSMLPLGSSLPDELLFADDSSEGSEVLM

[4] = target: T3, Hormonally up-regulated neu tumor-associated kinase (Homo sapiens) (UniProt P57058); experiment: Selectivity interaction (KinomeScan (DiscoverX)) EUB0000045b HUNK
T3 sequence (whole entry): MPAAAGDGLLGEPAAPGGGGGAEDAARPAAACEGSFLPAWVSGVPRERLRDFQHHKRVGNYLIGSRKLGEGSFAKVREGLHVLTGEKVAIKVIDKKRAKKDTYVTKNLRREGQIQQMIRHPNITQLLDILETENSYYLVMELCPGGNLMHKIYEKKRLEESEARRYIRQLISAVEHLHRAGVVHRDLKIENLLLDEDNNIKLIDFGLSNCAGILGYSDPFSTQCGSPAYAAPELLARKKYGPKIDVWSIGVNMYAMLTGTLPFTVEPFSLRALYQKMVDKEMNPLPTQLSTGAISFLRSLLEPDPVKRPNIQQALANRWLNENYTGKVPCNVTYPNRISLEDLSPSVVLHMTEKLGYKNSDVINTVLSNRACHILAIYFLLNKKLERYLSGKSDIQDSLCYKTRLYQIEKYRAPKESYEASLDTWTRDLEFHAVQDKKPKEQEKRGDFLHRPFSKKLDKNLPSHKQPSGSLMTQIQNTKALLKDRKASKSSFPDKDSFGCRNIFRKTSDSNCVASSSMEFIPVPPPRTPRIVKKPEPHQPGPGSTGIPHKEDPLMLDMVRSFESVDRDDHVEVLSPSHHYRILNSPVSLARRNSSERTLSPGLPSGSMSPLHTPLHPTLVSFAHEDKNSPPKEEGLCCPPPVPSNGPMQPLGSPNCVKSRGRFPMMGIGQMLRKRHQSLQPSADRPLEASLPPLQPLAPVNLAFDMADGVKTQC

Chain of Tyrosine-protein kinase ABL2 (P42684 whole entry, canonical isoform): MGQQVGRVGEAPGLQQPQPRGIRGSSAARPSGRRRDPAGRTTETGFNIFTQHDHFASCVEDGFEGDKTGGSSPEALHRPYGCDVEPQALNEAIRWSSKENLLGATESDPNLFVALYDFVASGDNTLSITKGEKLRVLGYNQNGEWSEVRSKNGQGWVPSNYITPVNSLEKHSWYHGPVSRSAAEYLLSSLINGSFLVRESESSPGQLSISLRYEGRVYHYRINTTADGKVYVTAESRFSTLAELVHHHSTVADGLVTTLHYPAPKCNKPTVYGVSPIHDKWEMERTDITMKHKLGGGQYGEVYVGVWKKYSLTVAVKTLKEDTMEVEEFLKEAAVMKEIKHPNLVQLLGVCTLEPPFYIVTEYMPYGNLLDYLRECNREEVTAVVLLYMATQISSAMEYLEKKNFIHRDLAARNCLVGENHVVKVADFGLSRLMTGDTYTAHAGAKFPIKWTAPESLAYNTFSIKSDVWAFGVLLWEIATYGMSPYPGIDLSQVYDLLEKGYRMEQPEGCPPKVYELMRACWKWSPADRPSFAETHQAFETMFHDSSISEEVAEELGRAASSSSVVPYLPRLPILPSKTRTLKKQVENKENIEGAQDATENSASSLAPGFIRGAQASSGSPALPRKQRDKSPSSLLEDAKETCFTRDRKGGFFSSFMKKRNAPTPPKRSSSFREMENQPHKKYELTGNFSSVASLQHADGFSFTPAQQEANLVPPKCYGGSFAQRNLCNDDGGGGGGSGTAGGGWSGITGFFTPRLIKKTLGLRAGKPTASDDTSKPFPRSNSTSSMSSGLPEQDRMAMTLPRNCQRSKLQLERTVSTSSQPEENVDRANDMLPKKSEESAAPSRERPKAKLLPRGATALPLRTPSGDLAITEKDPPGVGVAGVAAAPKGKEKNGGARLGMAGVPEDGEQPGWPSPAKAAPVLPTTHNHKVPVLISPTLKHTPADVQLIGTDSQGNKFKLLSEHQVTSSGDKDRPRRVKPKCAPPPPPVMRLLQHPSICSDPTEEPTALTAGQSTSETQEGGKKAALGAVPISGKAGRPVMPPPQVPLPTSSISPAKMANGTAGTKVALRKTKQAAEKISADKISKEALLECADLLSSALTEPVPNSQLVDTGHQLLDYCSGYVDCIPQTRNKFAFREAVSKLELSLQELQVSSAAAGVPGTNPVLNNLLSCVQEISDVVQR

- % of inhibition [1]: -0.467%
Structure (SMILES): CC[C@@H]1[C@H](F)C(=O)N[C@@H]1COc1nccc2cc(C(N)=O)c(OC)cc12 [ZIMLOVISERTIB]

Structure (SMILES): Cc1cc(F)c(C(=O)Nc2cccc(-c3nncn3C(C)C)n2)cc1-n1cnc(C2CC2)c1
- % of control [2]: 92%

Structure (SMILES): CN(C)C/C=C/C(=O)Nc1ccc(C(=O)N2CCCC(Nc3ncc(Cl)c(-c4c[nH]c5ccccc45)n3)C2)cc1 (stereo not given)
- % of control [3]: 61%

Structure (SMILES): C=CC(=O)Nc1cc(-n2c(=O)ccc3cnc4ccc(-c5ccc(NS(C)(=O)=O)cc5)cc4c32)ccc1C
- % of control ([4]; at 1 µM): 85%
- % of control ([4]; at 10 µM): 100%
